Earlier results, collected in patent US6790849B2, “Methods and compositions using optically pure (-) cetirizine in combination with leukotriene inhibitors or decongestants” (Sepracor Inc., priority 1998, dated 2004).
Read-outs that look alike come from different tables or passages of the source.

Columns and labels:
[1] = system: allergen- or exercise-induced bronchoconstriction; settings: patients, doses as large as 20 mg
[2] = system: LTD4; settings: guinea pigs
[3] = system: LTD4; settings: in vivo
[4] = system: three leukotrienes in conducting airway smooth muscle; settings: in vitro, laboratory animals and humans
[5] = system: LTD4; settings: in vivo; remark: listed apart in the source
[6] = system: leukotriene (LTH4, LTC4, LTD4, and LTE4) formation
[7] = for efficacy: 373 patients
[8] = system: LTB4 formation; settings: several species
[9] = system: leukotriene-dependent smooth muscle contractions; settings: in vitro, guinea pig and human airways

Question: For `O=C(O)COCCN1CCN(C(c2ccccc2)c2ccc(Cl)cc2)CC1` (racemic) [cetirizine], which “preventing allergen- or exercise-induced bronchoconstriction” value [1] is on record?
Answer: not uniformly effective

Question: With `CC(C)(C)c1ccc(C(O)CCCN2CCC(C(O)(c3ccccc3)c3ccccc3)CC2)cc1` (stereo not drawn) [terfenadine] as the compound, how does the “increase in airway resistance caused by LTD4” value [2] read?
Answer: suppressed

Question: Which results are given for `COc1cc(C(=O)NS(=O)(=O)c2ccccc2C)ccc1Cc1cn(C)c2ccc(NC(=O)OC3CCCC3)cc12` [zafirlukast, 4-(5-cyclopentyloxy-carbonylamino-1-methyl-indol-8-ylmethyl)-3-methoxy-N-o-tolylsulfonylbenzamide]?
Answer: intradermal LTD4-induced increases in cutaneous vascular permeability [3]: prevented; contractile activity of three leukotrienes in conducting airway smooth muscle [4]: antagonized; adverse effects reported in some patients: headache, infection, nausea, diarrhea, pain, asthenia, abdominal pain, dizziness, myalgia, fever, vomiting, SGPT elevation, and dyspepsia; inhaled LTD4-induced influx of eosinophils into animal lungs [5]: inhibited

Question: With `CC(c1cc2ccccc2s1)N(O)C(N)=O` (racemic) [zileuton, (±)-1-(1-Benso[b]thien-2-ylethyl)-1-hydroxyurea] as the compound, how does the “leukotriene (LTH4, LTC4, LTD4, and LTE4) formation in vitro” value [6] read?
Answer: inhibit

Question: What about the efficacy ([7]; 400 mg) of the same compound?
Answer: failed to do so

Question: What about the efficacy ([7]; 600 mg four times daily) of the same compound?
Answer: required to provide efficacy

Question: And the “adverse effects reported in some patients” value ([7]; some patients)?
Answer: headache, pain, asthenia, dyspepsia, nausea, and myalgia

Question: What about the “LTB4 formation ex vivo” value [8] of the same compound?
Answer: inhibitor

Question: What about the “leukotriene-dependent smooth muscle contractions” value [9] of the same compound?
Answer: inhibits
